The structures appear in SMILES notation. Values joined by “and” are separate entries in the source; they are usually repeats but may differ in a detail not shown here. Equal values may be shown once. Toxic doses and inconclusive results are not listed.

The assay relates to L1210 leukemia ip in BDF1 mice, survival T/C. The assay can be described thus: NCI In Vivo Anticancer Drug Screen. Data for tumor model L1210 Leukemia (intraperitoneal) in B6D2F1 (BDF1) mice. As to conditions: endpoint: mean survival time, higher = longer survival. The method in brief:
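Tumor cells were implanted, animals were treated, and survival was followed. The result divides the treated measurement by the vehicle-control measurement.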

The mark [1] stands for this setting: dose: 100.0 mg/kg/injection, schedule: Q01DX009 (ip), vehicle: Klucel (hydroxypropylcellulose) (HPC).
Where [2] appears, read: dose: 200.0 mg/kg/injection, schedule: Q01DX009 (ip), vehicle: Klucel (hydroxypropylcellulose) (HPC).
The mark [3] stands for this setting: dose: 400.0 mg/kg/injection, schedule: Q01DX009 (ip), vehicle: Klucel (hydroxypropylcellulose) (HPC).
Setting [4] is: dose: 100.0 mg/kg/injection, schedule: Q04DX003 (ip), vehicle: saline with Tween-80.

For `O=C(NNC(=S)Nc1ccccc1Cl)c1ccncc1`, the T/C is 93 % of control (dose: 75.0 mg/kg/injection, schedule: Q01DX009 (ip), vehicle: Klucel (hydroxypropylcellulose) (HPC)); 97 % of control (dose: 150.0 mg/kg/injection, schedule: Q01DX009 (ip), vehicle: Klucel (hydroxypropylcellulose) (HPC)); 101 % of control (dose: 300.0 mg/kg/injection, schedule: Q01DX009 (ip), vehicle: Klucel (hydroxypropylcellulose) (HPC)).
For the compound `O=C(COc1ccc(Br)cc1Br)OCCBr`, the T/C (dose: 100.0 mg/kg/injection, schedule: Q01DX001 (ip), vehicle: saline) is 97 % of control; the T/C (dose: 200.0 mg/kg/injection, schedule: Q01DX001 (ip), vehicle: saline) is 105 % of control; the T/C (dose: 400.0 mg/kg/injection, schedule: Q01DX001 (ip), vehicle: saline) is 100 % of control.
For `O=C(O)c1cnc[nH]1`, the T/C is, setting by setting: under setting [1], 100 % of control; under setting [2], 92 % of control; under setting [3], 94 % of control.
For `CCNC1=C(N2CC2)C(=O)C(NCC)=C(N2CC2)C1=O`, the T/C reads like this: (dose: 0.04 mg/kg/injection, schedule: Q01DX009 (ip), vehicle: saline) 95 % of control and 102 % of control; (dose: 0.09 mg/kg/injection, schedule: Q01DX009 (ip), vehicle: saline) 102 % of control and 111 % of control; (dose: 0.09 mg/kg/injection, schedule: Q04DX003 (ip), vehicle: saline) 100 % of control and 122 % of control; (dose: 0.18 mg/kg/injection, schedule: Q01DX009 (ip), vehicle: saline) 108 % of control and 120 % of control; (dose: 0.18 mg/kg/injection, schedule: Q04DX003 (ip), vehicle: saline) 104 % of control and 113 % of control; (dose: 0.37 mg/kg/injection, schedule: Q01DX009 (ip), vehicle: saline) 168 % of control. For the same compound, the T/C runs as follows: (dose: 0.37 mg/kg/injection, schedule: Q04DX003 (ip), vehicle: saline) 113 % of control and 114 % of control; (dose: 0.75 mg/kg/injection, schedule: Q01DX001 (ip), vehicle: saline) 120 % of control; (dose: 0.75 mg/kg/injection, schedule: Q01DX009 (ip), vehicle: saline) 151 % of control; (dose: 0.75 mg/kg/injection, schedule: Q04DX003 (ip), vehicle: saline) 120 % of control and 124 % of control; (dose: 1.5 mg/kg/injection, schedule: Q01DX001 (ip), vehicle: saline) 168 % of control; (dose: 1.5 mg/kg/injection, schedule: Q01DX009 (ip), vehicle: saline) 191 % of control and 212 % of control. Also, the T/C runs as follows: (dose: 1.5 mg/kg/injection, schedule: Q04DX003 (ip), vehicle: saline) 157 % of control; (dose: 3.0 mg/kg/injection, schedule: Q01DX001 (ip), vehicle: saline) 157 % of control; (dose: 3.0 mg/kg/injection, schedule: Q01DX009 (ip), vehicle: saline) 93 % of control and 117 % of control; (dose: 3.0 mg/kg/injection, schedule: Q04DX003 (ip), vehicle: saline) 175 % of control; (dose: 3.12 mg/kg/injection, schedule: Q04DX003 (ip), vehicle: saline) 150 % of control; (dose: 6.0 mg/kg/injection, schedule: Q04DX003 (ip), vehicle: saline) 101 % of control. Also, the T/C (dose: 6.25 mg/kg/injection, schedule: Q04DX003 (ip), vehicle: saline) is 95 % of control.
As to `CC(C)CP(=O)(CC(C)C)CC(C)C`, the T/C (dose: 6.25 mg/kg/injection, schedule: Q04DX003 (ip), vehicle: saline with Tween-80) was 98 % of control.
Regarding `CCOC(=O)c1cnc(SC)nc1NCc1ccccc1Cl`, the T/C is, setting by setting: under setting [1], 102 % of control; (dose: 100.0 mg/kg/injection, schedule: Q04DX003 (ip), vehicle: Klucel (hydroxypropylcellulose) (HPC)) 106 % of control; under setting [2], 97 % of control; (dose: 200.0 mg/kg/injection, schedule: Q04DX003 (ip), vehicle: Klucel (hydroxypropylcellulose) (HPC)) 105 % of control; under setting [3], 97 % of control; (dose: 400.0 mg/kg/injection, schedule: Q04DX003 (ip), vehicle: Klucel (hydroxypropylcellulose) (HPC)) 95 % of control.
`N=C(N)Cc1ccc(CCc2ccc(CC(=N)N)cc2)cc1`: the T/C reads like this: (dose: 12.5 mg/kg/injection, schedule: Q01DX Z (oral), vehicle: saline) 97 % of control; (dose: 25.0 mg/kg/injection, schedule: Q01DX Z (oral), vehicle: saline) 100 % of control; (dose: 50.0 mg/kg/injection, schedule: Q01DX Z (oral), vehicle: saline) 97 % of control; (dose: 100.0 mg/kg/injection, schedule: Q01DX Z (oral), vehicle: saline) 100 % of control.
As to `C1CCC2CCCCC2C1` (stereo not given), the T/C (dose: 3.13 mg/kg/injection, schedule: Q04DX002 (ip), vehicle: saline with Tween-80) was 100 % of control; the T/C (dose: 6.25 mg/kg/injection, schedule: Q04DX002 (ip), vehicle: saline with Tween-80) was 103 % of control; the T/C (dose: 12.5 mg/kg/injection, schedule: Q04DX002 (ip), vehicle: saline with Tween-80) was 103 % of control; the T/C (dose: 50.0 mg/kg/injection, schedule: Q04DX002 (ip), vehicle: saline) is 98 % of control; the T/C (dose: 100.0 mg/kg/injection, schedule: Q04DX002 (ip), vehicle: saline) was 91 % of control; the T/C (dose: 200.0 mg/kg/injection, schedule: Q04DX002 (ip), vehicle: saline) was 91 % of control. The T/C (dose: 400.0 mg/kg/injection, schedule: Q04DX002 (ip), vehicle: saline) was 91 % of control.
Regarding `Cc1cc(Cl)ccc1NC(=O)Nc1ccccc1`, the T/C was 87 % of control (dose: 100.0 mg/kg/injection, schedule: Q01DX009 (ip), vehicle: gum acacia); 87 % of control (dose: 100.0 mg/kg/injection, schedule: Q04DX003 (ip), vehicle: gum acacia); 89 % of control (dose: 200.0 mg/kg/injection, schedule: Q01DX009 (ip), vehicle: gum acacia); 89 % of control (dose: 200.0 mg/kg/injection, schedule: Q04DX003 (ip), vehicle: gum acacia); 87 % of control (dose: 400.0 mg/kg/injection, schedule: Q01DX009 (ip), vehicle: gum acacia); 90 % of control (dose: 400.0 mg/kg/injection, schedule: Q04DX003 (ip), vehicle: gum acacia).
In the case of `O=C(Nc1ccc(Cl)cc1)Nc1ccc(Cl)cc1`, the T/C under setting [4] was 91 % of control and the T/C (dose: 200.0 mg/kg/injection, schedule: Q04DX003 (ip), vehicle: saline with Tween-80) was 91 % of control.
Consider `CN(C)c1ccc(/C=C2\C=Cc3ccccc32)cc1Br`, for which the T/C under setting [4] is 101 % of control.
Regarding `CCCCCCCCCC(C)Cc1ccccc1` (stereo not given), the T/C was 100 % of control (dose: 100.0 mg/kg/injection, schedule: Q01DX001 (ip), vehicle: saline with Tween-80); 100 % of control (dose: 200.0 mg/kg/injection, schedule: Q01DX001 (ip), vehicle: saline with Tween-80); 92 % of control (dose: 400.0 mg/kg/injection, schedule: Q01DX001 (ip), vehicle: saline with Tween-80).
For `CN(C)CCCC#N`, the T/C was 97 % of control (dose: 100.0 mg/kg/injection, schedule: Q04DX003 (ip), vehicle: saline) and 95 % of control (dose: 200.0 mg/kg/injection, schedule: Q04DX003 (ip), vehicle: saline).
For the compound `N#Cc1c[nH]n2c(=S)ncnc12`, the T/C is 105 % of control (dose: 100.0 mg/kg/injection, schedule: Q01DX009 (ip), vehicle: saline with Tween-80) and 101 % of control (dose: 200.0 mg/kg/injection, schedule: Q01DX009 (ip), vehicle: saline with Tween-80).
In the case of `CC(C)CC(=O)CC(O)C(Cl)(Cl)Cl` (stereo not given), the T/C was 104 % of control (dose: 50.0 mg/kg/injection, schedule: Q04DX002 (ip), vehicle: Klucel (hydroxypropylcellulose) (HPC)); 93 % of control (dose: 100.0 mg/kg/injection, schedule: Q04DX002 (ip), vehicle: Klucel (hydroxypropylcellulose) (HPC)); 93 % of control (dose: 200.0 mg/kg/injection, schedule: Q04DX002 (ip), vehicle: Klucel (hydroxypropylcellulose) (HPC)); 101 % of control (dose: 400.0 mg/kg/injection, schedule: Q04DX002 (ip), vehicle: Klucel (hydroxypropylcellulose) (HPC)).
For `CCCCO.CCCCO.Cl.[O]=[V]`, the T/C (dose: 4.0 mg/kg/injection, schedule: Q01DX015 (ip), vehicle: other) is 97 % of control; the T/C (dose: 8.0 mg/kg/injection, schedule: Q01DX015 (ip), vehicle: other) is 97 % of control; the T/C (dose: 16.0 mg/kg/injection, schedule: Q01DX015 (ip), vehicle: other) is 96 % of control; the T/C (dose: 32.0 mg/kg/injection, schedule: Q01DX015 (ip), vehicle: other) was 108 % of control.

The values above are taken from PubChem BioAssay AID248 (DTP/NCI, 2004).
